This passage reports IC50 results from patent EP0073394A1, “2-Arylazo-2-imidazolines, acyl derivatives of the same, process for their preparation and the use in the control of ectoparasites and/or endoparasites” (BAYER AG, priority 1981, dated 1983).

For this test, the system named is Boophilus microplus, Biarra-Stamm. Nature of the test: Tick test (Zeckentest): in vitro test for inhibition of egg laying after dipping adult engorged female ticks. The test is classed as in vivo. The following applies: Rhipicephalus microplus, 480 h, resistant Biarra strain, 1 min dip, read after 20 days, read-out: 50 % Hemmung bei einer Wirkstoffkonzentration in ppm a.i. von. An excerpt:
Lösungsmittel: 35 Gewichtsteile Ethylenglykolmonomethylether 35 Gewichtsteile Nonylphenolpolyglykolether
Zwecks Herstellung einer geeigneten Formulierung vermischt man drei Gewichtsteile Wirkstoff mit sieben Teilen des oben angegebenen Lösungsmittel-Emulgator-Gemisches und verdünnt das so erhaltene Emulsionskonzentrat mit Wasser auf die jeweils gewünschte Konzentration.
In diese Wirkstoffzubereitungen werden adulte, vollgesogene Zeckenweibchen der Art Boophilus microplus (resistent) eine Minute lang getaucht. Nach dem Tauchen von je 10 weiblichen Exemplaren überführt man diese in Petrischalen, deren Boden mit einer entsprechend großen Filterscheibe belegt ist.
Nach 20 Tagen wird die Wirksamkeit der Wirkstoffzubereitung bestimmt durch Ermittlung der Hemmung der Eiablage gegenüber unbehandelten Kontrollzecken. Die Wirkung drückt man in Prozent aus, wobei 100 % bedeutet, daß keine Eier mehr abgelegt wurden und 0 % besagt, daß die Zecken Eier in normaler Menge ablegten.
Untersuchter Wirkstoff, geprüfte Konzentrationen, getestete Parasiten und erhaltene Befunde gehen aus der folgenden Tabelle hervor.

Some results are limits rather than exact numbers.

On to `Cc1cc(Cl)ccc1NC(=S)N(C)C` [Chloromethiuron], for which the IC50 is more than 5000 µg/mL.
